According to patent publication US11111242B2, “Pyrrolo[2,3-d]pyrimidinyl, pyrrolo[2,3-b]pyrazinyl and pyrrolo[2,3-d]pyridinyl acrylamides” (Pfizer Inc., priority 2013, dated 2021):
Read-outs that look alike come from different tables or passages of the source.

Test system: IL-15 induced P-STAT5 in human PBMC (total lymphocytes)
Assay: PBMC IL-15 Induced P-STAT5
Type: cell-based
Settings: IL-15 stimulated, read-out: PBMC IL15-pSTAT5 IC50
Protocol: PBMC IL-15 Induced P-STAT5
Frozen human PBMC (200-250 million cells/vial) was thawed at 37° C. The cells were transferred to 10 mL warm medium in a 50-mL conical tube, and centrifuged at 1,200 RPM at room temperature for 5 min. The supernatant was aspirated. […] After adding 47 ml D-PBS (37° C.) to PBMC/FBS suspension, centrifuging at 1,200 RPM at room temperature for 5 min, and aspirating the supernatant, the cells were resuspended in 20 mL warm RPMI medium. Ninety μL of cell suspension were pipetted per well in a 96-well, deep-well, V-bottom plate, and the plate was incubated at 37° C. for 30 min. […] After adding 0.8 mL staining buffer per well, the plates were centrifuged at 1,200 RPM (Beckman GS-6R or Sorvall Legend) at room temperature for 5 min, and again the supernatant was aspirated using a 8-channel or 12-channel manifold. The plate was vortexed, and 0.35 mL 90% methanol/10% H2O (−20° C.) was added per well, and the plate incubated on ice for 20 min. After again adding 0.8 mL staining buffer per well, the plates were centrifuged at 1,200 RPM (Beckman GS-6R or Sorvall Legend) at room temperature for 5 min, and again the supernatant was aspirated using a 8-channel or 12-channel manifold, and then 0.8 mL Staining buffer was added per well. After once again adding 0.8 mL staining buffer per well, the plates were centrifuged at 1,200 RPM (Beckman GS-6R or Sorvall Legend) at room temperature for 5 min, and again the supernatant was aspirated using a 8-channel or 12-channel manifold. […] Samples of 250 μL/well were transferred to a 96-well U-bottom plate, and the FACS analysis was performed gating on total lymphocytes. Samples were analyzed using a BD Calibur™ or BD FACSCanto™ flow cytometer equipped with the BD High Throughput Sampler.

C=CC(=O)N1CC[C@H]2CCN(c3ncnc4[nH]ccc34)[C@H]2C1 (racemic) [Example 21, rac-1-((3aR,7aR)-1-(7H-Pyrrolo[2,3-d]pyrimidin-4-yl)hexahydro-1H-pyrrolo[2,3-c]pyridin-6(2H)-yl)prop-2-en-1-one]
IC50 (Homo sapiens, PBMC): 236 nM

C=CC(=O)N1C[C@H](C)C[C@@H](Nc2ncnc3[nH]ccc23)C1 (racemic) [Example 65, Rac-1-((3R,5R)-3-((7H-Pyrrolo[2,3-d]pyrimidin-4-yl)amino)-5-methylpiperidin-1-yl)prop-2-en-1-one]
IC50: 3740 nM

C=CC(=O)N1C[C@H](Nc2ncnc3[nH]ccc23)CC[C@@H]1C [Example 5, 1-((2S,5R)-5-((7H-pyrrolo[2,3-d]pyrimidin-4-yl)amino)-2-methylpiperidin-1-yl)prop-2-en-1-one]
IC50: 51.7 nM

C=CC(=O)N1CCC[C@@H](Nc2ncnc3[nH]cc(CC#N)c23)C1 [Example 20, (R)-2-(4-((1-Acryloylpiperidin-3-yl)amino)-7H-pyrrolo[2,3-d]pyrimidin-5-yl)acetonitrile]
IC50: 362 nM

C=CC(=O)N1CCC[C@@H](Nc2ncnc3[nH]cc(-c4cncc(F)c4)c23)C1 [Example 23, 1-[(3R)-3-{[5-(5-fluoropyridin-3-yl)-7H-pyrrolo[2,3-d]pyrimidin-4-yl]amino}piperidin-1-yl]prop-2-en-1-one]
IC50: 188 nM

C=CC(=O)N1CCC[C@@H](Nc2ncnc3[nH]cc(-c4cncc(OC)c4)c23)C1 [Example 24, 1-[(3R)-3-{[5-(5-methoxypyridin-3-yl)-7H-pyrrolo[2,3-d]pyrimidin-4-yl]amino}piperidin-1-yl]prop-2-en-1-one]
IC50: 320 nM

C=CC(=O)N1CCC[C@@H](Nc2ncnc3[nH]cc(-c4ccccc4O)c23)C1 [Example 25, 1-[(3R)-3-{[5-(2-hydroxyphenyl)-7H-pyrrolo[2,3-d]pyrimidin-4-yl]amino}piperidin-1-yl]prop-2-en-1-one]
IC50: 84 nM

C=CC(=O)N1CCC[C@@H](Nc2ncnc3[nH]cc(-c4cccnc4)c23)C1 [Example 26, 1-[(3R)-3-{[5-(pyridin-3-yl)-7H-pyrrolo[2,3-d]pyrimidin-4-yl]amino}piperidin-1-yl]prop-2-en-1-one]
IC50 (Homo sapiens, PBMC): 254 nM

C=CC(=O)N1CCC[C@@H](Nc2ncnc3[nH]cc(-c4ccc(C(=O)N(C)C)cc4)c23)C1 [Example 27, 4-(4-{[(3R)-1-acryloylpiperidin-3-yl]amino}-7H-pyrrolo[2,3-d]pyrimidin-5-yl)-N,N-dimethylbenzamide]
IC50 (Homo sapiens, PBMC): 1870 nM

C=CC(=O)N1CCC[C@@H](Nc2ncnc3[nH]cc(-c4ccc(C(=O)NC(C)C)cc4)c23)C1 [Example 29, 4-(4-{[(3R)-1-acryloylpiperidin-3-yl]amino}-7H-pyrrolo[2,3-d]pyrimidin-5-yl)-N-(propan-2-yl)benzamide]
IC50: 464 nM

C=C(C(=O)N1CC[C@@H]2CCN(c3ncnc4[nH]ccc34)[C@@H]2C1)C(F)(F)F [Example 41, 1-((3aS,7aS)-1-(7H-Pyrrolo[2,3-d]pyrimidin-4-yl)hexahydro-1H-pyrrolo[2,3-c]pyridin-6(2H)-yl)-2-(trifluoromethyl)prop-2-en-1-one]
IC50 (Homo sapiens, PBMC): 446 nM

C#Cc1c[nH]c2ncnc(N3CC[C@H]4CCN(C(=O)C=C)C[C@H]43)c12 [Example 48, 1-[(3aS,7aS)-1-(5-ethynyl-7H-pyrrolo[2,3-d]pyrimidin-4-yl)octahydro-6H-pyrrolo[2,3-c]pyridin-6-yl]prop-2-en-1-one]
IC50 (Homo sapiens, PBMC): 65.2 nM

C=CC(=O)N1CCC[C@@H](Nc2ncnc3[nH]cc(CCO)c23)C1 [Example 55, (R)-1-(3-((5-(2-Hydroxyethyl)-7H-pyrrolo[2,3-d]pyrimidin-4-yl)amino)piperidin-1-yl)prop-2-en-1-one]
IC50: 430 nM

C=CC(=O)N1CCC[C@@H](Nc2nc(Nc3cccnc3)nc3[nH]ccc23)C1 [Example 63, 1-[(3R)-3-{[2-(Pyridin-3-ylamino)-7H-pyrrolo[2,3-d]pyrimidin-4-yl]amino}piperidin-1-yl]prop-2-en-1-one]
IC50 (Homo sapiens, PBMC): 1380 nM

C=CC(=O)N1CC(Nc2ncnc3[nH]ccc23)CCC1(C)C (centres unmarked) [Example 67, 1-(5-((7H-Pyrrolo[2,3-d]pyrimidin-4-yl)amino)-2,2-dimethylpiperidin-1-yl)prop-2-en-1-one]
IC50 (Homo sapiens, PBMC): 6900 nM

C=CC(=O)N1CCC[C@](C)(Nc2ncnc3[nH]ccc23)C1 [Example 70, (S)-1-(3-((7H-Pyrrolo[2,3-d]pyrimidin-4-yl)amino)-3-methylpiperidin-1-yl)prop-2-en-1-one]
IC50 (Homo sapiens, PBMC): 5530 nM

C=CC(=O)N1C[C@H](Nc2ncnc3[nH]ccc23)C[C@@H](OC)C1 [Example 77, 1-[(3R,5R)-3-Methoxy-5-(7H-pyrrolo[2,3-d]pyrimidin-4-ylamino)piperidin-1-yl]prop-2-en-1-one]
IC50: 3970 nM

C=CC(=O)N1C[C@H](Nc2ncnc3[nH]cc(C(N)=O)c23)CC[C@@H]1C [Example 164, 4-{[(3R,6S)-1-Acryloyl-6-methylpiperidin-3-yl]amino}-7H-pyrrolo[2,3-d]pyrimidine-5-carboxamide]
IC50: 1650 nM

C=CC(=O)N1CC[C@@H]2CN(c3cnc4[nH]cc(C(=O)NC(C)C)c4n3)C[C@@H]21 [Example 170, 2-[(3aR,6aR)-1-acryloylhexahydropyrrolo[3,4-b]pyrrol-5(1H)-yl]-N-(propan-2-yl)-5H-pyrrolo[2,3-b]pyrazine-7-carboxamide]
IC50 (Homo sapiens, PBMC): 1370 nM

C=CC(=O)N[C@H]1C[C@@H](Nc2cnc3[nH]cc(C(=O)NC(C)C)c3n2)C1 [Example 184, 2-{[cis-3-(acryloylamino)cyclobutyl]amino}-N-(propan-2-yl)-5H-pyrrolo[2,3-b]pyrazine-7-carboxamide]
IC50 (Homo sapiens, PBMC): 3410 nM

C=CC(=O)N(C)C1CN(c2cnc3[nH]cc(C(=O)NC(C)C)c3n2)C1 [Example 187, 2-{3-[acryloyl(methyl)amino]azetidin-1-yl}-N-(propan-2-yl)-5H-pyrrolo[2,3-b]pyrazine-7-carboxamide]
IC50 (Homo sapiens, PBMC): 710 nM

C=CC(=O)N1C[C@@H]2C(Nc3cnc4[nH]cc(C(=O)NC(C)C)c4n3)[C@@H]2C1 (stereo partly drawn) [Example 189, 2-{[(1R,5S,6s)-3-acryloyl-3-azabicyclo[3.1.0]hex-6-yl]amino}-N-(propan-2-yl)-5H-pyrrolo[2,3-b]pyrazine-7-carboxamide]
IC50: 1740 nM

C=CC(=O)N[C@H]1C[C@H](Nc2cnc3[nH]cc(C(=O)NC(C)C)c3n2)C1 [Example 198, 2-{[trans-3-(acryloylamino)cyclobutyl]amino}-N-(propan-2-yl)-5H-pyrrolo[2,3-b]pyrazine-7-carboxamide]
IC50 (Homo sapiens, PBMC): 1170 nM

C=CC(=O)N1CCC(Nc2cnc3[nH]cc(-c4ccc(C)nc4)c3n2)CC1 [Example 199, 1-(4-{[7-(6-methylpyridin-3-yl)-5H-pyrrolo[2,3-b]pyrazin-2-yl]amino}piperidin-1-yl)prop-2-en-1-one]
IC50 (Homo sapiens, PBMC): 735 nM

C=CC(=O)N1CCC(Nc2cnc3[nH]cc(-c4ccncc4F)c3n2)CC1 [Example 200, 1-(4-{[7-(3-fluoropyridin-4-yl)-5H-pyrrolo[2,3-b]pyrazin-2-yl]amino}piperidin-1-yl)prop-2-en-1-one]
IC50: 819 nM

C=CC(=O)N1CCC(Nc2cnc3[nH]cc(-c4ccc(S(C)(=O)=O)cc4)c3n2)CC1 [Example 203, 1-[4-({7-[4-(methylsulfonyl)phenyl]-5H-pyrrolo[2,3-b]pyrazin-2-yl}amino)piperidin-1-yl]prop-2-en-1-one]
IC50: 1180 nM

C=CC(=O)N1CCC(Nc2cnc3[nH]cc(-c4cccc(C(=O)NC)c4)c3n2)CC1 [Example 204, 3-{2-[(1-acryloylpiperidin-4-yl)amino]-5H-pyrrolo[2,3-b]pyrazin-7-yl}-N-methylbenzamide]
IC50: 855 nM

C=CC(=O)N1CCC(Nc2cnc3[nH]cc(-c4cncc(C#N)c4)c3n2)CC1 [Example 206, 5-{2-[(1-acryloylpiperidin-4-yl)amino]-5H-pyrrolo[2,3-b]pyrazin-7-yl}pyridine-3-carbonitrile]
IC50: 163 nM

C=CC(=O)N1CCC(Oc2cnc3[nH]cc(-c4cncc(F)c4)c3n2)CC1 [Example 213, 1-(4-{[7-(5-fluoropyridin-3-yl)-5H-pyrrolo[2,3-b]pyrazin-2-yl]oxy}piperidin-1-yl)prop-2-en-1-one]
IC50: 318 nM

C=CC(=O)N1CCC(Oc2cnc3[nH]cc(-c4ccc(C)nc4)c3n2)CC1 [Example 214, 1-(4-{[7-(6-methylpyridin-3-yl)-5H-pyrrolo[2,3-b]pyrazin-2-yl]oxy}piperidin-1-yl)prop-2-en-1-one]
IC50: 1110 nM

C=CC(=O)N1CCC(Oc2cnc3[nH]cc(-c4cncnc4)c3n2)CC1 [Example 215, 1-(4-{[7-(pyrimidin-5-yl)-5H-pyrrolo[2,3-b]pyrazin-2-yl]oxy}piperidin-1-yl)prop-2-en-1-one]
IC50: 1260 nM

C=CC(=O)N1CCC(Oc2cnc3[nH]cc(-c4cccnc4F)c3n2)CC1 [Example 217, 1-(4-{[7-(2-fluoropyridin-3-yl)-5H-pyrrolo[2,3-b]pyrazin-2-yl]oxy}piperidin-1-yl)prop-2-en-1-one]
IC50: 129 nM
